The text below walks through data of ChEMBL document CHEMBL3758113, “Stelliosphaerols A and B, Sesquiterpene-Polyol Conjugates from an Ecuadorian Fungal Endophyte” (2015).

This test has as its system Staphylococcus aureus. Nature of the test: Antibacterial activity against Staphylococcus aureus measured every 10 mins for 8 hrs by liquid culture growth inhibition assay. The class given is functional.

Converted amounts (≈) assume the structure as drawn.

`CC1=CCC[C@@H](C)[C@]1(C)CC/C(C)=C/CO[C@@H]([C@H](O)[C@H](O)CO)[C@H](O)CO` returned an MIC of 250 µg/mL (≈ 647 µM).
Turning to `CC1=CCC[C@@H](C)[C@]1(C)CC/C(=C/CO[C@@H]([C@H](O)[C@H](O)CO)[C@H](O)CO)CO`, the MIC is 250 µg/mL (≈ 621 µM).

In general, MIC refers to the lowest concentration that inhibits growth of the organism.
